Assay results: ChEMBL document CHEMBL5233262, “Anti-inflammatory activity of naturally occuring diarylheptanoids - A review” (Bioorg Med Chem, 2021)
≈ marks a conversion by molar mass, not a printed value. Blank lines part the entries; values can stand above or below the compound they belong to.

Experiments:
[1] = tested on: Hepatocyte; assay: Hepatoprotective activity against CCL4-induced rat hepatocyte toxicity assessed as decrease in ALT level at 1 uM preincubated for 30 mins followed by CCL4 addition and measured after 180 mins by colorimetric method; assay type: functional; parameters: scale not given: the % may be the effect or the level left; settings: time 210 min
[2] = tested on: Hepatocyte; assay: Hepatoprotective activity against CCL4-induced rat hepatocyte toxicity assessed as decrease in TNF-alpha level at 1 uM preincubated for 30 mins followed by CCL4 addition and measured after 180 mins by ELISA; assay type: functional; parameters: scale not given: the % may be the effect or the level left; settings: time 210 min
[3] = tested on: Hepatocyte; assay: Hepatoprotective activity against CCL4-induced rat hepatocyte toxicity assessed as decrease in IL-1beta level at 1 uM preincubated for 30 mins followed by CCL4 addition and measured after 180 mins by ELISA; assay type: functional; parameters: scale not given: the % may be the effect or the level left; settings: time 210 min
[4] = tested on: Hepatocyte; assay: Hepatoprotective activity against CCL4-induced rat hepatocyte toxicity assessed as decrease in TBARS level by measuring MDA formation at 1 uM preincubated for 30 mins followed by CCL4 addition and measured after 180 mins by TBARS method; assay type: functional; parameters: scale not given: the % may be the effect or the level left; settings: time 210 min
[5] = tested on: RAW264.7; assay: Antiinflammatory activity in mouse RAW264.7 cells assessed as inhibition of LPS-induced TNFalpha level preincubated for 1 hrs followed by LPS stimulation and measured after 24 hrs by ELISA; assay type: functional, cell-based
[6] = tested on: RAW264.7; assay: Antiinflammatory activity in mouse RAW264.7 cells assessed as inhibition of LPS-induced NO production preincubated for 1 hrs followed by LPS stimulation and measured after 24 hrs by Griess method; assay type: functional, cell-based
[7] = tested on: RAW264.7; assay: Antiinflammatory activity in mouse RAW264.7 cells assessed as inhibition of LPS-induced NO production preincubated for 0.5 hrs followed by LPS stimulation and measured after 24 hrs by Griess reagent based analysis; assay type: functional, cell-based
[8] = Cytotoxicity against mouse RAW264.7 cells assessed as reduction in cell viability by MTT assay; assay type: toxicity, cell-based
[9] = tested on: RAW264.7; assay: Antiinflammatory activity in mouse RAW264.7 cells assessed as inhibition of LPS-induced TNF-alpha production; assay type: functional, cell-based
[10] = tested on: RAW264.7; assay: Antiinflammatory activity in mouse RAW264.7 cells assessed as inhibition of LPS-induced IL-1beta production; assay type: functional, cell-based
[11] = tested on: RAW264.7; assay: Antiinflammatory activity in mouse RAW264.7 cells assessed as inhibition of LPS-induced IL-6 production; assay type: functional, cell-based
[12] = tested on: Mus musculus; assay: Antiinflammatory activity in ICR mouse model of TPA-induced ear edema assessed as inhibition of ear inflammation at 1 mg,TOP for 30 mins followed by TPA addition and measured after 6 hrs; assay type: functional; settings: time 390 min, 6.5 h
[13] = tested on: BV-2; assay: Antiinflammatory activity in mouse BV-2 cells assessed as inhibition of LPS-induced NO production at 10 uM preincubated for 1 hrs followed by LPS stimulation and measured after 24 hrs by Griess assay; assay type: functional; settings: time 25 hrs
[14] = tested on: RAW264.7; assay: Antiinflammatory activity in mouse RAW264.7 cells assessed as inhibition of LPS-induced NO production for 24 hrs by Griess assay; assay type: functional, cell-based; settings: RAW264.7, 24 h
[15] = tested on: RAW264.7; assay: Antiinflammatory activity in mouse RAW264.7 cells assessed as inhibition of LPS-induced NO production; assay type: functional, cell-based
[16] = tested on: Rattus norvegicus; assay: Antiinflammatory activity in rat model of carrageenan-induced paw edema assessed as reduction in paw thickness at 10 mg/kg,ip and measured after 4 hrs; assay type: functional; parameters: scale not given: the % may be the effect or the level left
[17] = tested on: Zingiber officinale; assay: Inhibition of prostaglandin biosynthesis in ginger; assay type: functional, organism-based
[18] = tested on: Mus musculus; assay: Antiinflammatory activity in TPA-induced ear edema ICR mouse model assessed as inhibition of ear inflammation at 1 ug, TOP for 30 mins followed by TPA addition and measured after 6 hrs; assay type: functional; settings: dose 1 µg, time 390 min, 6.5 h
[19] = tested on: RAW264.7; assay: Antiinflammatory activity against mouse RAW264.7 cells assessed as inhibition of IFN-gamma and LPS-induced COX2 production preincubated for 2 hrs followed by IFN-gamma and LPS stimulation and measured after 16 hrs by spectrophotometric analysis; assay type: functional, cell-based
[20] = tested on: RAW264.7; assay: Antiinflammatory activity in mouse RAW264.7 cells assessed as inhibition of LPS-induced IL-6 production at 10 uM preincubated for 2 hrs followed by LPS stimulation and measured after 24 hrs by ELISA; assay type: functional; settings: time 26 hrs
[21] = tested on: RAW264.7; assay: Antiinflammatory activity in mouse RAW264.7 cells assessed as inhibition of LPS-induced TNFalpha production at 100 uM preincubated for 2 hrs followed by LPS stimulation and measured after 24 hrs by ELISA; assay type: functional; settings: time 26 hrs
[22] = tested on: RAW264.7; assay: Antiinflammatory activity in mouse RAW264.7 cells assessed as inhibition of LPS-induced NO production at 100 uM preincubated for 2 hrs followed by LPS stimulation and measured after 24 hrs by Griess method; assay type: functional; settings: time 26 hrs
[23] = tested on: RAW264.7; assay: Antiinflammatory activity in mouse RAW264.7 cells assessed as inhibition of LPS-induced IL-6 production at 100 uM preincubated for 2 hrs followed by LPS stimulation and measured after 24 hrs by ELISA; assay type: functional; settings: time 26 hrs
[24] = tested on: RAW264.7; assay: Antiinflammatory activity in mouse RAW264.7 cells assessed as inhibition of LPS-induced IL-6 production at 3 uM preincubated for 2 hrs followed by LPS stimulation and measured after 24 hrs by ELISA; assay type: functional; settings: time 26 hrs
[25] = tested on: RAW264.7; assay: Antiinflammatory activity in mouse RAW264.7 cells assessed as inhibition of LPS-induced IL-6 production at 30 uM preincubated for 2 hrs followed by LPS stimulation and measured after 24 hrs by ELISA; assay type: functional; settings: time 26 hrs
[26] = tested on: RAW264.7; assay: Antiinflammatory activity in mouse RAW264.7 cells assessed as inhibition of LPS-induced TNFalpha production at 10 uM preincubated for 2 hrs followed by LPS stimulation and measured after 24 hrs by ELISA; assay type: functional; settings: time 26 hrs
[27] = tested on: RAW264.7; assay: Antiinflammatory activity in mouse RAW264.7 cells assessed as inhibition of LPS-induced NO production at 3 uM preincubated for 2 hrs followed by LPS stimulation and measured after 24 hrs by Griess method; assay type: functional; settings: time 26 hrs
[28] = tested on: RAW264.7; assay: Antiinflammatory activity in mouse RAW264.7 cells assessed as inhibition of LPS-induced TNFalpha production at 30 uM preincubated for 2 hrs followed by LPS stimulation and measured after 24 hrs by ELISA; assay type: functional; settings: time 26 hrs
[29] = tested on: RAW264.7; assay: Antiinflammatory activity in mouse RAW264.7 cells assessed as inhibition of LPS-induced NO production at 30 uM preincubated for 2 hrs followed by LPS stimulation and measured after 24 hrs by Griess method; assay type: functional; settings: time 26 hrs
[30] = tested on: RAW264.7; assay: Antiinflammatory activity in mouse RAW264.7 cells assessed as inhibition of LPS-induced TNFalpha production at 3 uM preincubated for 2 hrs followed by LPS stimulation and measured after 24 hrs by ELISA; assay type: functional; settings: time 26 hrs
[31] = tested on: RAW264.7; assay: Antiinflammatory activity in mouse RAW264.7 cells assessed as inhibition of LPS-induced NO production at 10 uM preincubated for 2 hrs followed by LPS stimulation and measured after 24 hrs by Griess method; assay type: functional; settings: time 26 hrs
[32] = tested on: J774.1; assay: Cytotoxicity in mouse J774.1 cells assessed as reduction in cell viability at 100 microg/ml; assay type: toxicity, cell-based; settings: at 100 µg/mL
[33] = tested on: J774.1; assay: Antiinflammatory activity in mouse J774.1 cells assessed as inhibition of LPS-induced NO production incubated for 48 hrs by Griess reagent based analysis; assay type: functional, cell-based; settings: Mus musculus, J774.1, 48 h
[34] = tested on: J774.1; assay: Antiinflammatory activity in mouse J774.1 cells assessed as inhibition of LPS-induced NO production at 100 microg/ml; assay type: functional
[35] = tested on: Rattus norvegicus; assay: Antiinflammatory activity in Wistar rat model of carrageenan-induced paw edema assessed as reduction in paw thickness at 10 mg/kg,po and measured after 5 hrs; assay type: functional; parameters: scale not given: the % may be the effect or the level left
[36] = tested on: Rattus norvegicus; assay: Antiinflammatory activity in rat model of carrageenan-induced hind paw edema assessed as reduction in paw thickness at 100 mg/kg,ip 30mins before carrageenin exposure and measured after 3 hrs; assay type: functional; parameters: scale not given: the % may be the effect or the level left
[37] = tested on: Rattus norvegicus; assay: Antiinflammatory activity in rat model of ethyl phenylpropiolate-induced ear edema assessed as reduction in ear thickness administered topically and measured after 30 mins; assay type: functional; settings: 0.5 h

IC50 [5]: 11.2 µM
IC50 [6]: 12.3 µM
SMILES: COc1cc(/C=C/C(=O)CC(=O)/C=C/c2ccc(O)c(OC)c2)ccc1O [CURCUMIN]
Activity [1]: 57.6%
Activity [2]: 37.1%
Activity [3]: 63.3%
Activity [4]: 39.2%

IC50 [7]: 8.6 µM
SMILES: O=C(/C=C/C=C/c1ccc(O)c(O)c1)CCc1ccc(O)c(O)c1
IC50 [8]: 36.4 µM

IC50 [9]: 19.5 µM
IC50 [10]: 17.9 µM
IC50 [11]: 20.3 µM
SMILES: COc1cc2cc(c1O)-c1cc(ccc1O)CC[C@H](O)CCCC2

SMILES: O=c1c(O)c(-c2ccc(O)c(O)c2)oc2cc(O)cc(O)c12 [QUERCETIN]
IC50 [9]: 13.6 µM
ID50 [12]: 1.6 mg
IC50 [10]: 16.9 µM
IC50 [11]: 16.8 µM

SMILES: Oc1ccc(CC[C@@H](O)C[C@H](O)CCc2ccc(O)cc2)cc1 [(+)-HANNOKINOL]
inhibition at 10 µM [13]: 51.3%

IC50 [14]: 32.3 µM
IC50 [15]: 26.3 µM
IC50 [17]: 4.9 µM
IC50 [19]: 26.2 µg/mL (≈ 73.2 µM)
SMILES: COc1ccc2c(c1)c(CC(=O)O)c(C)n2C(=O)c1ccc(Cl)cc1 [INDOMETHACIN]
ID50 [12]: 0.3 mg
Activity [16]: 55.2%
ID50 [18]: 0.9 µmol

SMILES: COc1cc(CC[C@H](O)C[C@H](O)[C@@H](O)Cc2ccc(O)c(OC)c2)ccc1O
inhibition at 10 µM [20]: 43%
inhibition at 100 µM [21]: 34%
inhibition at 100 µM [22]: 39%
inhibition at 100 µM [23]: 43%
inhibition at 3 µM [24]: 43%
inhibition at 30 µM [25]: 43%
inhibition at 10 µM [26]: 34%
inhibition at 3 µM [27]: 39%
inhibition at 30 µM [28]: 34%
inhibition at 30 µM [29]: 39%
inhibition at 3 µM [30]: 34%
inhibition at 10 µM [31]: 39%

IC50 [33]: 39 µM
SMILES: COc1cc(O)c([C@@H](/C=C/C[C@@H](O)CCc2ccc(O)cc2)c2ccc(O)cc2)c(O)c1C(=O)/C=C/c1ccc(O)cc1
Activity [32]: 85%
inhibition at 100 µg/mL [34]: 90%

SMILES: O=C(CCc1ccccc1)C[C@H](O)CCc1ccccc1
Activity [35]: 6.9%
ID50 [18]: 2.1 µmol

SMILES: COc1cc(CC[C@@H](C[C@H](O)[C@@H](O)Cc2ccc(O)cc2)O[C@@H]2OC[C@@H](O)[C@H](O)[C@H]2O)ccc1O
inhibition at 10 µM [20]: 43%
inhibition at 100 µM [21]: 36%
inhibition at 100 µM [22]: 39%
inhibition at 100 µM [23]: 43%
inhibition at 3 µM [24]: 43%
inhibition at 30 µM [25]: 43%
inhibition at 10 µM [26]: 36%
inhibition at 3 µM [27]: 39%
inhibition at 30 µM [28]: 36%
inhibition at 30 µM [29]: 39%
inhibition at 3 µM [30]: 36%
inhibition at 10 µM [31]: 39%

SMILES: CC(=O)Oc1ccccc1C(=O)O [ASPIRIN]
Activity [36]: 80%

SMILES: Oc1ccc(CC[C@@H](O)C[C@@H](O)CCc2ccc(O)cc2)cc1
inhibition at 10 µM [13]: 65.2%

SMILES: O=C(/C=C/C=C/c1ccccc1)CCc1ccccc1
ID50 [37]: 63 µg
Activity [36]: 44%

IC50 [33]: 104 µM
SMILES: COc1cc(O)c([C@@H](/C=C/C[C@@H](O)CCc2ccc(O)cc2)c2ccc(O)cc2)c2oc(-c3ccc(O)cc3)cc(=O)c12 (stereo in doubt; 112)
Activity [32]: 85%
inhibition at 100 µg/mL [34]: 90%
